The source of these data is ChEMBL document CHEMBL5226343, “Structure-Activity Relationship of USP5 Inhibitors” (J Med Chem, 2021).

The nature of data set [1]: Metabolic stability of the compound in human liver microsomes assessed as parent compound remaining at 1 uM measured for 60 mins in presence of NADPH regenerating system by LC/MS analysis. The format is ADME, Microsome. As to conditions: read-out: Stability.
Data set [2] in a line: Metabolic stability of the compound in CD-1 mouse liver microsomes assessed as parent compound remaining at 1 uM measured after 60 mins in presence of NADPH regenerating system by LC/MS analysis. The format is ADME, Microsome. As to conditions: read-out: Stability. In general terms: Liver microsomes are a subcellular fraction often used to study metabolism.

The structures appear in SMILES notation. Bounds are passed on as bounds.

As to `O=C(O)CNC(=O)c1ccc(S(=O)(=O)N2CCC(c3ccc(Cl)cc3)CC2)cn1`, the remaining at 1 h, 1 µM in data set [1] and in data set [2] was over 90% throughout.
